The values that follow come from BindingDB's records for doi:10.1021/acsmedchemlett.0c00405 (University of Oxford, 2020).

The test in a line: Modulation of human utrophinA expressed in mouse H2K-mdx utrnA-luc cells assessed as upregulation of utrophin production after 24 hrs by luciferase reporter gene assay. A general note: A reporter such as luciferase makes a cellular process visible.

The term EC50 denotes the concentration at which the effect is half-maximal.

As for `CCP(=O)(OC)c1ccc2oc(-c3cccc(OC)c3)nc2c1` (stereo not given), the EC50 turned out to be 0.157 µM.
The figure for `CCP(=O)(OC)c1ccc2nc(-c3cccc(OC(F)F)c3)oc2c1` (stereo not given) is > 50 µM.
Under `CCP(=O)(OC)c1ccc2oc(-c3cccc(OC(F)F)c3)nc2c1` (stereo not given) stands 0.677 µM.
Under `CCP(=O)(OC)c1ccc2oc(-c3cncc(C(F)F)c3)nc2c1` (stereo not given) stands 5.9 µM; under `CCP(=O)(OC)c1ccc2oc(-c3cncc(C(F)(F)F)c3)nc2c1` (stereo not given), 4.17 µM.
For `CCP(=O)(OC)c1ccc2oc(-c3ccnc(OC(F)F)c3)nc2c1` (stereo not given), the EC50 is 0.309 µM.
Under `CCP(=O)(OC)c1ccc2nc(-c3cncc(C(F)(F)F)c3)oc2c1` (stereo not given) stands > 50 µM.
In the case of `CCP(=O)(OC)c1ccc2oc(-c3ccccc3C(F)F)nc2c1` (stereo not given), the EC50 was 1.26 µM.
For the compound `CCP(=O)(OC)c1ccc2oc(-c3ccc(OC)cc3)nc2c1` (stereo not given), the EC50 came to 0.51 µM.
In the case of `CCP(=O)(OC)c1ccc2oc(-c3ccc(F)cc3C(F)F)nc2c1` (stereo not given), the EC50 came out at 0.58 µM.
Under `CCP(=O)(OC)c1ccc2oc(-c3ccc4c(c3)OC(F)(F)O4)nc2c1` (stereo not given) stands 0.53 µM; under `CCP(=O)(OC)c1ccc2nc(-c3ccccc3C(F)F)oc2c1` (stereo not given), 0.5 µM; under `CCP(=O)(OC)c1ccc2oc(-c3cccc(C(F)F)c3)nc2c1` (stereo not given), 0.89 µM.
The figure for `CCP(=O)(OC)c1ccc2oc(-c3ccc(C(F)F)cc3)nc2c1` (stereo not given) is 0.75 µM; for `CCP(=O)(OC)c1ccc2nc(-c3ccc(C(F)F)cc3)oc2c1` (stereo not given) it is 1.9 µM.
